Laboratory results: PMC8151276, “An Integrated Approach toward NanoBRET Tracers for Analysis of GPCR Ligand Engagement” (Molecules, 2021)

Columns and labels:
Type in all cases: binding
GRM2 = molecular target: T1, GRM2 (Homo sapiens, UniProt Q14416); test: NanoBRET screen HiBiT-GRM2 in HEK293; settings: GRM2
T1 construct: purchased Promega (in-house HiBiT-GPCR construct library, NanoBRET)
Experimental: (§1) Each tracer candidate was screened across the entire library of HiBiT-GPCR constructs using NanoBRET as the detection modality. As depicted in Figure 4A, the specificity of interactions was evaluated through decrease in BRET due to competitive displacement of a bound tracer by excess parental compound. Each tracer was analyzed for binding to each HiBiT-GPCR fusion in the absence and in the presence of competing parental compound. Briefly, HEK293 cells were transfected with HiBiT-GPCR constructs diluted into promoterless DNA to reduce expression and maximize translocation to the cell surface. Each tracer candidate was then screened at concentrations of 1 μM and 0.1 μM across cells expressing these fusions. Cells were treated for 1.5 h with tracer either alone or in the presence of 20 μM competing parental compound (i.e., control). BRET was measured upon addition of purified LgBiT and subsequent complementation with HiBiT genetically fused to a GPCR. The specificity of interactions was assessed through a decrease in BRET signal due to competitive displacement of the bound tracer. To further gauge the robustness of these interactions, the fold response over the control (i.e., BRETtracer/BRETcontrol) was calculated. We chose a 1.5-fold response, which translates to ≥7-fold signal over noise as the minimal threshold required to score an interaction as positive. […]. Below we highlight the screening results obtained for our exemplary fluorescent tracers based on Clozapine, Amitriptyline and AZD1283.
(§2) HiBiT-GPCR DNA constructs were diluted in 10 mM Tris pH 8 to a final concentration of 0.01 μg/μL, arrayed in 96-well plates and stored at −20 °C. For transfection, HEK293 cells were suspended in Opti-MEM (without phenol red) supplemented with 2% fetal bovine serum (Seradigm) and 100 units/mL penicillin–streptomycin (Gibco) at a final concentration of 220,000 cells/mL and dispensed into white 96-well plates at 90 μL/well. Subsequent transfections and screens were carried using an Agilent Bravo Automated Liquid Handling Platform. First, the 96-well HiBiT DNA arrays were diluted 25-fold in Opti-MEM (without serum or phenol red) to a final concentration of 0.0004 μg/μL and 20 μL of the diluted DNAs were transferred into new 96-well plates. Next, promoterless carrier DNA (1 μg/μL) was diluted 25-fold (0.04 μg/μL) and then dispensed into the diluted arrays at 20 μL/well. Following brief mixing, Viafect transfection reagent (Promega) diluted 16-fold into Opti-MEM was dispensed into the plates at 40 μL/well. After mixing by pipetting, plates were incubated for 10 min on the pipetting station deck. The DNA-transfection reagent complexes were then added to plates containing cells. To facilitate the screen, 10 μL of DNA-transfection reagent complexes were added in duplicates to the top 4 and bottom 4 rows, resulting in two identical 48-well arrays per plate. Plates with transfected cells were incubated for 18–20 h at 37 °C/5% CO2. A screen of each tracer across the entire library using two different concentrations requires duplicate plates of transfected cells. Depending on the number of tracers being screened, transfections can be scaled up using the same ratios. The next day, for each tracer, four 20× screening solutions in tracer dilution buffer (Promega) were prepared: two duplicates at final concentration of 20 μM and two duplicates at a final concentration of 2 μM. A competing unmodified compound was added to one of each duplicate at a final concentration of 400 μM. The four resulting solutions were diluted 4-fold in Opti-MEM without serum or phenol red to generate 5× solutions (5 µM and 0.5 µM tracer +/− 100 μM competing compound). To screen the library, a BioTek MultiFlo FX liquid dispenser was used to dispense 22.5 µL of tracer solution to the top 4 rows and 22.5 µL tracer + competing compound solution to the 4 bottom rows. Plates were briefly mixed on an orbital shaker and incubated for 1.5 h at room temperature. […]

OPRL1 = molecular target: T2, OPRL1 (Homo sapiens, UniProt P41146); test: NanoBRET screen HiBiT-OPRL1 in HEK293; settings: OPRL1
T2 construct: purchased Promega (in-house HiBiT-GPCR construct library, NanoBRET)
T2 sequence (P41146 whole entry): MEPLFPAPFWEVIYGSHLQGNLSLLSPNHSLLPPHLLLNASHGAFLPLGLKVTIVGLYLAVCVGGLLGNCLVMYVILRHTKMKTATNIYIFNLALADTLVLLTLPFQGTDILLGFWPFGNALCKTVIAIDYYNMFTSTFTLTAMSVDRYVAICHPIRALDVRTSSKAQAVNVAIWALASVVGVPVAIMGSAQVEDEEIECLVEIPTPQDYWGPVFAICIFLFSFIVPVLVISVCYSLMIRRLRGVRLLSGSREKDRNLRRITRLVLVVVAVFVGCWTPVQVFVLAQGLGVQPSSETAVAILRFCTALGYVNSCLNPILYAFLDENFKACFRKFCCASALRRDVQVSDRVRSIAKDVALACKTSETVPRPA
Experimental: as §1, §2

CXCR4 = molecular target: T3, CXCR4 (Homo sapiens, UniProt P61073); test: NanoBRET screen HiBiT-CXCR4 in HEK293; settings: CXCR4
T3 construct: purchased Promega (in-house HiBiT-GPCR construct library, NanoBRET)
T3 sequence (P61073 whole entry): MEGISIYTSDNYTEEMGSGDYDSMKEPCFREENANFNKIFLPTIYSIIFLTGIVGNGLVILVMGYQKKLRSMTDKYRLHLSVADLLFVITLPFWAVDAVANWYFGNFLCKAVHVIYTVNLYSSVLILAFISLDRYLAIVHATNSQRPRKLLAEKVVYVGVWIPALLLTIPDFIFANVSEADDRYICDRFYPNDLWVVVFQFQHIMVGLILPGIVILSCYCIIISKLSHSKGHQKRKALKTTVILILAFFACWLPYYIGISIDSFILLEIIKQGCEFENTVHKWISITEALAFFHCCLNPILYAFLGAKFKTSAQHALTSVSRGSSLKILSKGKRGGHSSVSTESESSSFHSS
Experimental: as §1, §2

PTGDR2 = molecular target: T4, PTGDR2 (Homo sapiens, UniProt Q9Y5Y4); test: NanoBRET screen HiBiT-PTGDR2 in HEK293; settings: PTGDR2
T4 construct: purchased Promega (in-house HiBiT-GPCR construct library, NanoBRET)
T4 sequence (Q9Y5Y4 1-395): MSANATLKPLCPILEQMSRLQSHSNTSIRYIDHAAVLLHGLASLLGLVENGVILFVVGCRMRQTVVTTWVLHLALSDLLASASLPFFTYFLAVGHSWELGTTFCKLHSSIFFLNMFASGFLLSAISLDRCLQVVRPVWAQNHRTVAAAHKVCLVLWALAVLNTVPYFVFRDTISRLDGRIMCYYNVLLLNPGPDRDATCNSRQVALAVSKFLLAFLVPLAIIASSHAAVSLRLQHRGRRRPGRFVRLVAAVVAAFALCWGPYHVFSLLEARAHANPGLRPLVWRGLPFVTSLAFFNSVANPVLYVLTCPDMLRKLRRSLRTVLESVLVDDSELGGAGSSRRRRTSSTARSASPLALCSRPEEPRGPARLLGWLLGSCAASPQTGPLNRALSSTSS
Experimental: as §1, §2

SSTR1 = molecular target: T5, SSTR1 (Homo sapiens, UniProt P30872); test: NanoBRET screen HiBiT-SSTR1 in HEK293; settings: SSTR1
T5 construct: purchased Promega (in-house HiBiT-GPCR construct library, NanoBRET)
T5 sequence (P30872 whole entry): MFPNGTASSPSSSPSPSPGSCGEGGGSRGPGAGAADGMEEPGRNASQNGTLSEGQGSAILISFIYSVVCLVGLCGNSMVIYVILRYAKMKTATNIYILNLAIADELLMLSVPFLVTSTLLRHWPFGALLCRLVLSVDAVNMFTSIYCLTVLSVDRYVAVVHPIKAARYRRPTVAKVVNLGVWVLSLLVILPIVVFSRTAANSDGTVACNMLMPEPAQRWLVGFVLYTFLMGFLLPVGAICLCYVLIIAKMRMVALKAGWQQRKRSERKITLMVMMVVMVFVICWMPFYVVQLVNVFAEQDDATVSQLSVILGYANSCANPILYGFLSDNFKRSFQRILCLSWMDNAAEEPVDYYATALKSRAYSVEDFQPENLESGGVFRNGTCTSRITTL
Experimental: as §1, §2

P2RY13 = molecular target: T6, P2RY13 (Homo sapiens, UniProt Q9BPV8); test: NanoBRET screen HiBiT-P2RY13 in HEK293; settings: P2RY13
T6 construct: purchased Promega (in-house HiBiT-GPCR construct library, NanoBRET)
T6 sequence (Q9BPV8 1-354): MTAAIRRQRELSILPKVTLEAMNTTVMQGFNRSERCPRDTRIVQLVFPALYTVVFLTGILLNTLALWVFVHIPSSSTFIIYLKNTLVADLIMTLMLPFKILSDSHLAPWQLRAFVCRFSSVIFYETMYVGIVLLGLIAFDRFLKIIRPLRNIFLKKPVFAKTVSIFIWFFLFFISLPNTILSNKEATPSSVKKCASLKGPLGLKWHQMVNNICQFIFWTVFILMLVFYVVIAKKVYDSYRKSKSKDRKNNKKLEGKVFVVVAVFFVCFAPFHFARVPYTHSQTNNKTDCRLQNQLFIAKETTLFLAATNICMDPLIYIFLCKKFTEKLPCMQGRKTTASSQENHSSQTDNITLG
Experimental: as §1, §2

HTR1D = molecular target: T7, HTR1D (Homo sapiens, UniProt P28221); test: NanoBRET screen HiBiT-HTR1D in HEK293; settings: HTR1D
T7 construct: purchased Promega (in-house HiBiT-GPCR construct library, NanoBRET)
T7 sequence (P28221 whole entry): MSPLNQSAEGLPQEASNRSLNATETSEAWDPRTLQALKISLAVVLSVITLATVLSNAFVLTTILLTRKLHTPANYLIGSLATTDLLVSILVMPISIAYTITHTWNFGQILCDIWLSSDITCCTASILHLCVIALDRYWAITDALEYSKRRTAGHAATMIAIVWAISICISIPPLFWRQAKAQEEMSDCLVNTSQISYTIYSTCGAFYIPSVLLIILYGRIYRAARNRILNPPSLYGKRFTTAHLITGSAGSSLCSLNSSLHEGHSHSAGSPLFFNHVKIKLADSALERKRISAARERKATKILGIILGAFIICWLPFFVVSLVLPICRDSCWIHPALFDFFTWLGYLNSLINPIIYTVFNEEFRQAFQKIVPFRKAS
Experimental: as §1, §2

RXFP4 = molecular target: T8, RXFP4 (Homo sapiens, UniProt Q8TDU9); test: NanoBRET screen HiBiT-RXFP4 in HEK293; settings: RXFP4
T8 construct: purchased Promega (in-house HiBiT-GPCR construct library, NanoBRET)
T8 sequence (Q8TDU9 whole entry): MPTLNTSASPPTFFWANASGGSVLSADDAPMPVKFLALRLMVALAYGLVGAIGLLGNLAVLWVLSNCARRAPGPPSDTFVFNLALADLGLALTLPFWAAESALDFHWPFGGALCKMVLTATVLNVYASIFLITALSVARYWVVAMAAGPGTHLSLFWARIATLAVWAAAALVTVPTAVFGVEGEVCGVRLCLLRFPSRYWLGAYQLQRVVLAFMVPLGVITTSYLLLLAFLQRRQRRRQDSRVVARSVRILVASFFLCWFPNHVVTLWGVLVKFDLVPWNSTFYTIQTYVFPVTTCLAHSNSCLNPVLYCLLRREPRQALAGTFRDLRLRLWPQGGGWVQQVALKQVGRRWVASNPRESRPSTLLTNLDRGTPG
Experimental: as §1, §2

T1 sequence (Q14416 19-872): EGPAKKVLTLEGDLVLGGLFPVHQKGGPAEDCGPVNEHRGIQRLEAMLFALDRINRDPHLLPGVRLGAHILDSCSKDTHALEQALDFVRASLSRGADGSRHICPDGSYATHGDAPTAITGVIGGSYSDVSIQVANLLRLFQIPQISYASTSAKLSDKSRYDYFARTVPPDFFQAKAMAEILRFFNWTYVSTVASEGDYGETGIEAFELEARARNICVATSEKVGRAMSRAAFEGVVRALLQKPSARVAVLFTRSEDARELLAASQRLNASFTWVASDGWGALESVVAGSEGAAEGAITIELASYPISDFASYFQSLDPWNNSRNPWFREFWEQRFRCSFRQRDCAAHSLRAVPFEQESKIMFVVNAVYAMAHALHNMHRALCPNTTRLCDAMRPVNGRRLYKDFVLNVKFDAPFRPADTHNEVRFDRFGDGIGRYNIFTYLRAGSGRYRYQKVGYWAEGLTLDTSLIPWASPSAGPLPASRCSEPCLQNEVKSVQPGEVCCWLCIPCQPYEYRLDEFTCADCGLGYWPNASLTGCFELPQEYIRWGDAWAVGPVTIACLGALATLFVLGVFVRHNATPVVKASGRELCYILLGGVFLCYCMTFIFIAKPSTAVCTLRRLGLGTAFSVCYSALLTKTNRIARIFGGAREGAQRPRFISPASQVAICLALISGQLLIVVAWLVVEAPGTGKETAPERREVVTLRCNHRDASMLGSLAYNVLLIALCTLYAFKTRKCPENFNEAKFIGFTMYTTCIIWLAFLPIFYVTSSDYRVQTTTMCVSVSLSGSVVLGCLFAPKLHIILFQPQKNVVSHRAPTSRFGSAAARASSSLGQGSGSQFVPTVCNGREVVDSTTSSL

| Structure (SMILES) | NanoBRET Fold Response (GRM2; tracer 0.1μM) | NanoBRET Fold Response (GRM2; tracer 1μM) | NanoBRET Fold Response (OPRL1; tracer 0.1μM) | NanoBRET Fold Response (OPRL1; tracer 1μM) | NanoBRET Fold Response (CXCR4; tracer 0.1μM) | NanoBRET Fold Response (CXCR4; tracer 1μM) | NanoBRET Fold Response (PTGDR2; tracer 0.1μM) | NanoBRET Fold Response (PTGDR2; tracer 1μM) | NanoBRET Fold Response (SSTR1; tracer 0.1μM) | NanoBRET Fold Response (SSTR1; tracer 1μM) | NanoBRET Fold Response (P2RY13; tracer 0.1μM) | NanoBRET Fold Response (P2RY13; tracer 1μM) | NanoBRET Fold Response (HTR1D; tracer 0.1μM) | NanoBRET Fold Response (HTR1D; tracer 1μM) | NanoBRET Fold Response (RXFP4; tracer 0.1μM) | NanoBRET Fold Response (RXFP4; tracer 1μM) | other results |
| --- | --- | --- | --- | --- | --- | --- | --- | --- | --- | --- | --- | --- | --- | --- | --- | --- | --- |
| COc1ccccc1N1CCN(CCCCN2C(=O)c3ccc(CNC(=O)CCOCCNC(=O)c4ccc(CNC(=O)CCc5ccc6n5[B-](F)(F)[N+]5=C(c7ccc[nH]7)C=CC5=C6)cc4)cc3C2=O)CC1 [NAN-190-3-NB590] | 1.03 | 1.03 | 1.08 | 1.41 | 1.24 | 1.08 | 0.87 | 0.85 | 1.03 | 1.12 | 1.02 | 0.92 | 1.11 | 1.70 | 0.93 | 0.90 | – |
| O=C(CCc1ccc2n1[B-](F)(F)[N+]1=C(c3ccc[nH]3)C=CC1=C2)NCc1ccc(C(=O)NCCOCCC(=O)N[C@@H]2CC[C@@]3(O)[C@H]4Cc5ccc(O)c6c5[C@@]3(CCN4CC3CC3)[C@H]2O6)cc1 [Naltrexone-3-NB590] | 0.92 | 0.98 | 1.54 | 0.99 | 1.30 | 0.84 | 0.98 | 1.00 | 1.06 | 0.96 | 0.62 | 0.92 | 0.53 | 0.94 | 0.98 | 0.98 | – |
| Cc1cc2c(s1)Nc1ccccc1N=C2N1CCN(CCCNC(=O)CCOCCOCCOCCOCCNC(=O)CCc2ccc3n2[B-](F)(F)[N+]2=C(c4ccc[nH]4)C=CC2=C3)CC1 [Olanzapine-a-2-NB590] | 1.00 | 1.01 | 1.02 | 0.47 | 1.04 | 1.10 | 0.97 | 0.96 | 1.08 | 1.16 | 1.09 | 0.86 | 1.03 | 1.29 | 0.95 | 0.91 | – |
| O=C(CCc1ccc2n1[B-](F)(F)[N+]1=C(c3ccc[nH]3)C=CC1=C2)NCc1ccc(C(=O)NCCOCCOCCNCC(O)COc2cccc3ccccc23)cc1 (stereo not shown) [Propranolol-3-NB590] | – | – | – | – | – | – | – | – | – | – | – | – | – | – | – | – | NanoBRET Fold Response (GRM2; 0.1μM): 0.94; NanoBRET Fold Response (GRM2; 1μM): 1.05; NanoBRET Fold Response (OPRL1; 0.1μM): 0.96; NanoBRET Fold Response (OPRL1; 1μM): 1.01; NanoBRET Fold Response (CXCR4; 0.1μM): 1.04; NanoBRET Fold Response (CXCR4; 1μM): 1.02; NanoBRET Fold Response (PTGDR2; 0.1μM): 0.96; NanoBRET Fold Response (PTGDR2; 1μM): 1.06; NanoBRET Fold Response (SSTR1; 0.1μM): 1.04; NanoBRET Fold Response (SSTR1; 1μM): 1.02; NanoBRET Fold Response (P2RY13; 0.1μM): 0.90; NanoBRET Fold Response (P2RY13; 1μM): 0.97; NanoBRET Fold Response (HTR1D; 0.1μM): 1.24; NanoBRET Fold Response (HTR1D; 1μM): 0.96; NanoBRET Fold Response (RXFP4; 0.1μM): 1.02; NanoBRET Fold Response (RXFP4; 1μM): 1.05 |
| O=C(CCc1ccc2n1[B-](F)(F)[N+]1=C(c3ccc[nH]3)C=CC1=C2)NCCOCCOCCNC(=O)OCCOCCN1CCN(C2=Nc3ccccc3Sc3ccccc32)CC1 [Quetiapine-a-2-NB590] | 0.92 | 1.06 | 0.90 | 1.00 | 0.98 | 0.97 | 0.96 | 1.05 | 0.92 | 0.92 | 0.98 | 0.95 | 1.02 | 1.32 | 1.02 | 0.68 | – |
| Cc1nc2n(c(=O)c1CCN1CCC(c3noc4cc(F)ccc34)CC1)CCCC2OC(=O)NCCOCCOCCOCCOCCNC(=O)CCc1ccc2n1[B-](F)(F)[N+]1=C(c3ccc[nH]3)C=CC1=C2 (stereo not shown) [Risperidone-2-NB590] | 0.96 | 1.04 | 0.97 | 0.96 | 1.05 | 1.12 | 0.99 | 0.96 | 1.08 | 0.94 | 1.03 | 0.90 | 1.38 | 1.86 | 0.96 | 1.10 | – |
| CC(C)N(CC[C@H](c1ccccc1)c1cc(CCNC(=O)CCOCCOCCOCCOCCNC(=O)CCc2ccc3n2[B-](F)(F)[N+]2=C(c4ccc[nH]4)C=CC2=C3)ccc1O)C(C)C [Tolterodine-2-NB590] | 0.99 | 0.97 | 1.07 | 0.90 | 0.88 | 1.02 | 0.95 | 0.99 | 1.11 | 1.21 | 1.26 | 1.28 | 1.35 | 0.68 | 0.96 | 1.06 | – |
